System: tumor-bearing mice (mice ascites tumor s180 cells)
Assay: Effect on chemotherapy-induced bone marrow suppression in tumor-bearing mice (routine blood test)
Type: in vivo, Kunming mice
Details: after 10 days once daily, docetaxel 75 mg/m^2/d iv, Tegafur/Gimeracil/Oteracil capsules 222.2 mg/m^2/d intragastric, icaritin 10 mg/kg/d iv
Experimental: Mice ascites tumor s180 cells were conventionally incubated in 1640 culture medium, at 37° C., 5% CO2, and passaged once every two days in average. The cells in the logarithmic growth phase were prepared into a single-cell suspension having a density of 3.0×10^7 cells/ml with normal saline, which was injected into the abdominal cavities of mice under sterile conditions. Seven days after inoculation, significant swelling of the abdominal cavities of mice can be seen. As this time, the mice were executed by cervical vertebra luxation, put into a beaker containing 75% ethanol and soaked for 2-3 minutes. The sterilized mice were placed into an ultraclean bench, and the abdomens were exposed. The ascites was drawn with a sterile syringe and put into a sterile reagent bottle for further use. The above ascites was counted with trypan blue, diluted with normal saline to adjust to 2.0×10^7 cells/ml, and inoculated at the right armpit of the mice with 0.2 ml for each mouse. The inoculated mice were randomly divided into 6 groups, with 10 animals in each group and half male and half female. Group 1, the model control group: the test animals were intraperitoneally injected with0.9% normal saline (same for the following experiments); Group 2, the docetaxel group: 75 mg/m^2/d of docetaxel; Group 3, the Tegafur, Gimeracil and Oteracil Potassium Capsules group: 222.2 mg/m^2/d of Tegafur, Gimeracil and Oteracil Potassium Capsules; Group 4, the icaritin group: 10 mg/kg/d of the icaritin microemulsion formulation; Group 5, the D+I group (docetaxel+icaritin group): 75 mg/m^2/d of docetaxel+[…] of icaritin; Group 6, the T +I group (Tegafur, Gimeracil and Oteracil Potassium Capsules+icaritin group): 222.2 mg/m^2/d of Tegafur, Gimeracil and Oteracil Potassium Capsules+10 mg/kg/d of icaritin. Docetaxel and icaritin were administered by tail intravenous injection with an administration volume of 10 ml/kg for each. Tegafur, Gimeracil and Oteracil Potassium Capsules was intragastrically administered with an administration volume of 40 ml/kg. Each group was administered once a day for totally 10 days. During the test, the animals were observed every day for their food and water uptake, survival conditions and behaviors, and measured for their body weights every day. After the test was ended, the mice were anaesthetized and anatomized. Blood was collected from abdominal aorta for routine blood test, and the total number of white blood cells, the total number of platelets and the total number of neutrophils were determined.

COc1ccc(-c2oc3c(CC=C(C)C)c(O)cc(O)c3c(=O)c2O)cc1 [Icaritin]
Neutrophils: 1.316 ± 0.15^#**^$$ 10^9/L | Platelets: 687.4 ± 37.2^## 10^9/L | White blood cells: 3.530 ± 0.31^##**^$$ 10^9/L
